Assay results as given in patent publication US12595478B2, “Crispr-Cas systems having destabilization domain” (THE BROAD INSTITUTE, INC., priority 2016, dated 2026).

Tests used:
ER50.Cas9.ER50 = test: Cas9-mediated eGFP knockout (eGFP disruption) in U20S.eGFP-PEST cells nucleofected with ER50.Cas9.ER50; type: cell-based; conditions: increasing concentrations 0.5-1000 nM, 48 h
Text: FIG. 3A-3B. […] (a) Representative images of conditional control of Cas9-mediated eGFP knockout in U20S.eGFP-PEST cells. […] Error bars represent standard deviation from biological replicates (n=6).

[1] = tested on: engineered Cas9 system comprising a functionalized guide with DHFR destabilization domain; test: Induction of ASCL1 mRNA by engineered DD-Cas9 SAM with stabilizing ligand (FIG. 11); type: cell-based; conditions: cells transiently transfected with DD-Cas9 SAM, treated with stabilizing ligand
Description: FIG. 11. […] Cells were transiently transfected with engineered DD-Cas9 SAM and ASCL1 mRNA was measured. Compared to untransfected cells, DD-Cas9-SAM induced expression of ASCL1 mRNA is observed.

ER50.SaCas9.ER50 = ER50.SaCas9.ER50 (Homo sapiens, UniProt P03372, G521R/L384M/M421G/N519S/T371A/Y537S); conditions: cells expressing ER50.SaCas9.ER50 treated with 40HT
Chain of ER50.SaCas9.ER50 (P03372 305-549 T371A/L384M/M421G/N519S/G521R/Y537S limits assumed): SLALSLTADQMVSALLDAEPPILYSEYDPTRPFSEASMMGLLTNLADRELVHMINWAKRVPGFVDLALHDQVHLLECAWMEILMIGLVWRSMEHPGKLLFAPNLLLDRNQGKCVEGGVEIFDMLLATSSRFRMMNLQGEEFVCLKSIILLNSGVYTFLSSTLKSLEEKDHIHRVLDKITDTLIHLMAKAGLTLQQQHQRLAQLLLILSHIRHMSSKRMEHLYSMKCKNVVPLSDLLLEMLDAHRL
Description: Assessment of dose-responsiveness of DD-regulated SaCas9 gene editing activity.

[2] = target: engineered Cas9-SAM system comprising a DD (ER50) (Homo sapiens, UniProt P03372, G521R/L384M/M421G/N519S/T371A/Y537S); conditions: ligand 4HT
Chain of engineered Cas9-SAM system comprising a DD (ER50) (P03372 305-549 T371A/L384M/M421G/N519S/G521R/Y537S limits assumed): as above

ER50.MS2.p65.HSF1 = ER50.MS2.p65.HSF1 (Homo sapiens, UniProt P03372, G521R/L384M/M421G/N519S/T371A/Y537S); conditions: targeted to ASCL1; increasing concentrations of 40HT, 18 h, qPCR
Chain of ER50.MS2.p65.HSF1 (P03372 with tags, fused parts or gaps T371A/L384M/M421G/N519S/G521R/Y537S limits assumed): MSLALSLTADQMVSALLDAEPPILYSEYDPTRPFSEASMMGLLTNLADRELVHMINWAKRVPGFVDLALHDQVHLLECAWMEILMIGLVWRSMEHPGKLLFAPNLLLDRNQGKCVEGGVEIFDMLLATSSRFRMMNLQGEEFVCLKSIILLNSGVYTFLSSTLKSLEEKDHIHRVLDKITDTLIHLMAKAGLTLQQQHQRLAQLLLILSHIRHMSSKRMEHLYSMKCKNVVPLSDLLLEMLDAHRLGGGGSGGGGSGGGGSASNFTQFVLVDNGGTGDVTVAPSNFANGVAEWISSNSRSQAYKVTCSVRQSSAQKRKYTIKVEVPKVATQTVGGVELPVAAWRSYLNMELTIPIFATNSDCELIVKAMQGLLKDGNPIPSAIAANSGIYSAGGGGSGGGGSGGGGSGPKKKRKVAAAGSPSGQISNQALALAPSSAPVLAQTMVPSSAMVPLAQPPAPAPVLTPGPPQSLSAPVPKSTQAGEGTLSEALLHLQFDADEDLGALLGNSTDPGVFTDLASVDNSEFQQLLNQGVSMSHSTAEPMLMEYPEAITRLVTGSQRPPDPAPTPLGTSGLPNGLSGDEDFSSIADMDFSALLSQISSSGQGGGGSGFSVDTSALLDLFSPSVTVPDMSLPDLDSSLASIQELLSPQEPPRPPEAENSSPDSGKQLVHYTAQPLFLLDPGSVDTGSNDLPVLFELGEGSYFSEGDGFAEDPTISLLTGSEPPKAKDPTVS
Description: Multidimensional ‘chemical’ control of endogenous transcript levels. […] DHFR.PP7.VP64 was targeted to ILIRN, and ER50.MS2.p65.HSF1 was targeted to ASCL1. […] Error bars represent s.e.m. from biological replicates (n=3; a,c) or ±s.d. across technical replicates (n=4; b,d).

human FKBP12 = conditions: FKBP12 mutant DD; cited from earlier work
Drosophila = test: TMP-controlled gene drive in Drosophila for green body color; type: in vivo; conditions: in the presence of TMP, wt Cas9 for comparison, DMSO control ~50% (Mendelian inheritance)
DHFR = test: Binding of photocaged TMP derivative to DHFR; conditions: before exposure to light (NVOC group attached)
[3] = tested on: temperature-sensitive mutant of mammalian DHFR (DHFRts); conditions: cells expressing DHFRts; cited from earlier work
[4] = tested on: human embryonic stem cells (hESCs); test: Mutagenic NHEJ by double nickase in human embryonic stem cells; type: cell-based; conditions: Cas9-D10A and two gRNAs targeted to different strands at the same location, data not shown
Text: In some embodiments, a vector comprises a regulatory element operably linked to an enzyme-coding sequence encoding a CRISPR protein (i.e. CRISPR/Cas system effector or CRISPR effector). […] The CRISPR enzyme is Cas9, and may be Cas9 from S. pyogenes or S. pneumoniae. In some embodiments, the CRISPR enzyme directs cleavage of one or both strands at the location of a target sequence, such as within the target sequence and/or within the complement of the target sequence. In some embodiments, the CRISPR enzyme directs cleavage of one or both strands within about 1, 2, 3, 4, 5, 6, 7, 8, 9, 10, 15, 20, 25, 50, 100, 200, 500, or more base pairs from the first or last nucleotide of a target sequence. In some embodiments, a vector encodes a CRISPR enzyme that is mutated to with respect to a corresponding wild-type enzyme such that the mutated CRISPR enzyme lacks the ability to cleave one or both strands of a target polynucleotide containing a target sequence. […] In some embodiments, a Cas9 nickase may be used in combination with guide sequenc(es), e.g., two guide sequences, which target respectively sense and antisense strands of the DNA target. This combination allows both strands to be nicked and used to induce NHEJ.

dystrophin = conditions: average, across 48 weeks; cited from earlier work

Q: What does the source list for 4-hydroxytamoxifen [40HT]?
A: genome editing (dosability) (ER50.Cas9.ER50): High dosability; ASCL1 mRNA [1]: significant increase; nuclease activity (indel activity, Surveyor assay) (ER50.SaCas9.ER50): dose dependent increase; SAM-dependent expression of ASCL1 mRNA [2]: Increased; endogenous gene upregulation (dose response) (ER50.MS2.p65.HSF1): Highly dose-responsive

Q: Which “binding to and stabilization of the DD” value (human FKBP12) does the source give for CC[C@H](C(=O)N1CCCC[C@H]1C(=O)O[C@H](CCc1ccc(OC)c(OC)c1)c1cccc(OCCN2CCOCC2)c1)c1cc(OC)c(OC)c(OC)c1 [Shield-1] here?
A: dose-dependent manner

Q: Which results are given for COc1cc(Cc2cnc(N)nc2N)cc(OC)c1OC [TMP, trimethoprim]?
A: inheritance of the green-body color (Drosophila): 84%; SpCas9-mediated knockout of the ebony gene (DHFR-SpCas9-DHFR; TMP dose dependence): Dose-dependent; time post TMP removal from the fly food within which % ebony knockout is lowered (DHFR-SpCas9-DHFR; TMP removal from the fly food): ≤ 24 h

Q: With COc1cc(COC(=O)Nc2ncc(Cc3cc(OC)c(OC)c(OC)c3)c(N)n2)c([N+](=O)[O-])cc1OC [TMP-NVOC] as the compound, how does the “binding to DHFR” value (DHFR) read?
A: prevents photocaged TMP-NVOC from binding to DHFR

Q: For CN(Cc1cnc2nc(N)nc(N)c2n1)c1ccc(C(=O)N[C@@H](CCC(=O)O)C(=O)O)cc1 [methotrexate], which “degradation of DHFRts” value [3] is on record?
A: inhibited degradation of the protein partially

Q: Which “efficiency of inducing mutagenic NHEJ relative to nuclease (regular Cas9 without D10 mutation)” value [4] does the source give for “double nickase: Cas9-D10A and two gRNAs targeted to different strands at the same location” here?
A: about 50%

Q: For eteplirsen, which “dystrophin positive fibers compared to baseline” value (dystrophin) is on record?
A: 47%
